Laboratory results: ChEMBL document CHEMBL6103565, “Current strategies in design and synthesis of antifungals hybrid and chimeric diazine derivatives” (Bioorg Med Chem, 2025)
Values after ≈ are worked out from the molar mass of the structure shown.

How the values were obtained:
[1] = test system: Syncephalastrum racemosum; assay: Antifungal activity against Syncephalastrum racemosum assessed as zone of inhibition; assay type: functional
[2] = test system: Candida albicans; assay: Antifungal activity against Candida albicans ATCC 10231 assessed as zone of inhibition incubated for 24 hrs by disc diffusion method; assay type: functional
[3] = test system: Aspergillus fumigatus; assay: Antifungal activity against Aspergillus fumigatus assessed as zone of inhibition; assay type: functional
[4] = test system: Candida albicans; assay: Antifungal activity against Candida albicans; assay type: functional
[5] = test system: Geotrichum candidum; assay: Antifungal activity against Geotrichum candidum; assay type: functional
[6] = test system: Pichia kudriavzevii; assay: Antifungal activity against Pichia kudriavzevii MTCC 3020 assessed as inhibition of fungal growth incubated for 24 hrs; assay type: functional
[7] = test system: Candida albicans; assay: Antifungal activity against Candida albicans MTCC 7315 assessed as inhibition of fungal growth incubated for 24 hrs; assay type: functional
[8] = test system: Candida parapsilosis; assay: Antifungal activity against Candida parapsilosis MTCC 1744 assessed as inhibition of fungal growth incubated for 24 hrs; assay type: functional; conditions: Lodderomyces parapsilosis
[9] = test system: Candida albicans; assay: Antifungal activity against Candida albicans MTCC 3017 assessed as inhibition of fungal growth incubated for 24 hrs; assay type: functional
[10] = test system: Candida albicans; assay: Antifungal activity against Candida albicans MTCC 227 assessed as inhibition of fungal growth incubated for 24 hrs; assay type: functional
[11] = test system: Candida albicans; assay: Antifungal activity against Candida albicans MTCC 1637 assessed as inhibition of fungal growth incubated for 24 hrs; assay type: functional
[12] = test system: Nakaseomyces glabratus; assay: Antifungal activity against Candida glabrata MTCC 3019 assessed as inhibition of fungal growth incubated for 24 hrs; assay type: functional
[13] = test system: Candida albicans; assay: Antifungal activity against Candida albicans MTCC 4748 assessed as inhibition of fungal growth incubated for 24 hrs; assay type: functional
[14] = test system: Candida albicans; assay: Antifungal activity against Candida albicans MTCC 3018 assessed as inhibition of fungal growth incubated for 24 hrs; assay type: functional
[15] = test system: Candida albicans; assay: Antifungal activity against azole-resistant Candida albicans ATCC 18804 assessed as fungal growth inhibition incubated for 24 hrs by CLSI protocol based broth microdilution method; assay type: functional
[16] = test system: Aspergillus flavus; assay: Antimicrobial activity against Aspergillus flavus assessed as zone of inhibition; assay type: functional
[17] = test system: Trichophyton rubrum; assay: Antifungal activity against Trichophyton rubrum assessed as diameter of zone inhibition; assay type: functional
[18] = test system: Candida tropicalis; assay: Antifungal activity against Candida tropicalis assessed as zone of inhibition by disc diffusion method; assay type: functional
[19] = test system: Aspergillus niger; assay: Antifungal activity against Aspergillus niger assessed as zone of inhibition by disc diffusion method; assay type: functional
[20] = test system: Cryptococcus neoformans; assay: Antifungal activity against Cryptococcus neoformans assessed as reduction in fungal growth incubated for 24 hrs by broth microdilution method; assay type: functional
[21] = test system: Candida albicans; assay: Antifungal activity against Candida albicans assessed as reduction in fungal growth incubated for 48 hrs by broth micro-dilution method; assay type: functional
[22] = test system: Candida albicans; assay: Antifungal activity against Candida albicans NRRL-Y477 assessed as zone of inhibition by disc diffusion method; assay type: functional
[23] = test system: Aspergillus niger; assay: Antifungal activity against Aspergillus niger MTCC 282 by disc diffusion method; assay type: functional, organism-based
[24] = test system: Candida albicans; assay: Antifungal activity against Candida albicans MTCC 227 by disc diffusion method; assay type: functional, organism-based
[25] = test system: Candida albicans; assay: Antifungal activity against Candida albicans assessed as diameter of zone inhibition; assay type: functional
[26] = test system: Aspergillus niger; assay: Antifungal activity against Aspergillus niger assessed as diameter of zone inhibition; assay type: functional

## CCc1nnc2c(Nc3ccc(C(=O)/C=C/c4ccc(C)cc4)cc3)nc3ccccc3n12
[1]
  inhibition zone (IZ): 20 mm

## CCOc1ccccc1/N=N/c1c(N)nc2c(/N=N/c3ccccc3OCC)cnn2c1N
[2]
  inhibition zone (IZ): 21 mm

## CCc1nnc2c(Nc3ccc(C(=O)/C=C/c4ccc(OC)cc4)cc3)nc3ccccc3n12
[3]
  inhibition zone (IZ): 21 mm

## CCOC(=O)Cc1nc2c3[se]c4nc5c(nc4c3ncn2n1)c(C)nn5-c1ccccc1
[4]
  MIC: 8 µg/mL (≈ 16.3 µM)
[5]
  MIC: 6 µg/mL (≈ 12.2 µM)

## Fc1ccc(-c2nnc3c4ccc(C(F)(F)F)nc4nc(-c4ccco4)n23)c(Cl)c1
[6]
  MIC: 3.9 µg/mL (≈ 8.99 µM)
[7]
  MIC: 3.9 µg/mL (≈ 8.99 µM)
[8]
  MIC: 3.9 µg/mL (≈ 8.99 µM)
[9]
  MIC: 3.9 µg/mL (≈ 8.99 µM)
[10]
  MIC: 3.9 µg/mL (≈ 8.99 µM)
[11]
  MIC: 3.9 µg/mL (≈ 8.99 µM)
[12]
  MIC: 3.9 µg/mL (≈ 8.99 µM)
[13]
  MIC: 3.9 µg/mL (≈ 8.99 µM)
[14]
  MIC: 3.9 µg/mL (≈ 8.99 µM)

## O=c1ccc(=O)n(-c2nc(-c3ccc([N+](=O)[O-])cc3)cs2)[nH]1
[15]
  MIC: 3.9 µg/mL (≈ 12.3 µM)

## Nc1ncc(C2=NC3=Nc4ccccc4C3=N2)c(N)n1
[16]
  inhibition zone (IZ): 18 mm

## CN(C)c1ccc(-c2cc(Br)c(O)nn2)cc1
[17]
  inhibition zone (IZ): 15 mm

## CC1=NN(c2ccccc2)C2N=C3SCCN3C(c3ccc(O)cc3)C12 (centres undefined)
[18]
  inhibition zone (IZ): 26 mm
[19]
  inhibition zone (IZ): 24 mm

## Cc1nc(NC(=O)c2cc3ccccc3o2)c2c(C(F)(F)F)cc(-c3ccccc3)nc2n1
[20]
  MIC: 12.5 µg/mL (≈ 27.9 µM)

## Cc1nn(-c2ccccc2)c2nc3sc4c(c3nc12)N=C(N)COC4=O
[5]
  MIC: 4 µg/mL (≈ 11 µM)

## Cc1ccc(S(=O)(=O)Nc2nc(/N=N/c3c(N)nn4c(C)cc(C)nc34)cs2)cc1
[21]
  MIC: 50 µg/mL (≈ 113 µM)

## Cc1ccc(S(=O)(=O)Nc2nc(/N=N/c3c(N)nn4c(-c5ccc([N+](=O)[O-])cc5)c(C#N)c(N)nc34)cs2)cc1
[21]
  MIC: 25 µg/mL (≈ 43.4 µM)

## CCc1nnc2c(Nc3ccc(C4=NN(c5ccccc5)C(c5ccc(Cl)cc5)C4)cc3)nc3ccccc3n12 (centres undefined)
[3]
  inhibition zone (IZ): 21 mm

## O=C(CSc1nc2sc3c(c2c(=O)n1-c1ccc(Cl)cc1)CCCC3)Nc1nc(-c2cccc(Br)c2)cs1
[22]
  inhibition zone (IZ): 18 mm

## CCc1nnc2c(Nc3ccc(C4=NN(c5ccccc5)C(c5ccc(OC)cc5)C4)cc3)nc3ccccc3n12 (centres undefined)
[1]
  inhibition zone (IZ): 21 mm

## CC(=O)N1N=C(C2=C(C)NC(=O)NC2c2ccc(F)cc2)OC1c1cccc([N+](=O)[O-])c1 (centres undefined)
[23]
  EC50: 0.16 µg/mL (≈ 0.364 µM)
[24]
  EC50: 0.16 µg/mL (≈ 0.364 µM)

## Fc1ccc(-c2nnc3c4ccc(C(F)(F)F)nc4nc(-c4ccccc4)n23)c(Cl)c1
[6]
  MIC: 3.9 µg/mL (≈ 8.79 µM)
[7]
  MIC: 3.9 µg/mL (≈ 8.79 µM)
[8]
  MIC: 3.9 µg/mL (≈ 8.79 µM)
[9]
  MIC: 3.9 µg/mL (≈ 8.79 µM)
[10]
  MIC: 3.9 µg/mL (≈ 8.79 µM)
[11]
  MIC: 3.9 µg/mL (≈ 8.79 µM)
[12]
  MIC: 3.9 µg/mL (≈ 8.79 µM)
[13]
  MIC: 3.9 µg/mL (≈ 8.79 µM)
[14]
  MIC: 3.9 µg/mL (≈ 8.79 µM)

## Cc1ccc(S(=O)(=O)Nc2nc(/N=N/c3c(N)nn4c(-c5ccc(Cl)cc5)c(C#N)c(N)nc34)cs2)cc1
[21]
  MIC: 100 µg/mL (≈ 177 µM)

## Cc1ccc(S(=O)(=O)Nc2nc(/N=N/c3c(N)nn4c(N)c(C#N)nnc34)cs2)cc1
[21]
  MIC: 6.25 µg/mL (≈ 13.7 µM)

## CC1=NN(c2ccccc2)C2N=C3SCCN3C(c3ccc(Cl)cc3)C12 (centres undefined)
[18]
  inhibition zone (IZ): 26 mm
[19]
  inhibition zone (IZ): 24 mm

## CCc1ccccc1/N=N/c1c(N)nn2c(-c3ccc(Cl)cc3)cc(-c3ccccc3)nc12
[2]
  inhibition zone (IZ): 19 mm

## CCc1nnc2c(Nc3ccc(C4=NNC(c5ccc(Cl)cc5)C4)cc3)nc3ccccc3n12 (centres undefined)
[3]
  inhibition zone (IZ): 22 mm

## COC(=O)Nc1nc2ccccc2[nH]1 [CARBENDAZIM]
[24]
  EC50: 0.21 µg/mL (≈ 1.1 µM)

## C[C@@H]1C[C@@H]([C@H](O)CC2CC(=O)NC(=O)C2)C(=O)[C@@H](C)C1 [CYCLOHEXIMIDE]
[21]
  MIC: 3.12 µg/mL (≈ 11.1 µM)

## COC1=CC(=O)C[C@@H](C)[C@]12Oc1c(Cl)c(OC)cc(OC)c1C2=O [GRISEOFULVIN]
[4]
  MIC: 500 µg/mL (≈ 1420 µM)
[18]
  inhibition zone (IZ): 25 mm
[19]
  inhibition zone (IZ): 22 mm

## Clc1ccc(COC(Cn2ccnc2)c2ccc(Cl)cc2Cl)c(Cl)c1 (centres undefined) [MICONAZOLE]
[6]
  MIC: 0.39 µg/mL (≈ 0.937 µM)
[7]
  MIC: 0.39 µg/mL (≈ 0.937 µM)
[8]
  MIC: 0.39 µg/mL (≈ 0.937 µM)
[9]
  MIC: 0.39 µg/mL (≈ 0.937 µM)
[10]
  MIC: 0.39 µg/mL (≈ 0.937 µM)
[11]
  MIC: 0.39 µg/mL (≈ 0.937 µM)
[12]
  MIC: 0.39 µg/mL (≈ 0.937 µM)
[13]
  MIC: 0.39 µg/mL (≈ 0.937 µM)
[14]
  MIC: 0.39 µg/mL (≈ 0.937 µM)

## Clc1ccc(C(Cn2ccnc2)OCc2csc3c(Cl)cccc23)c(Cl)c1 (centres undefined) [SERTACONAZOLE]
[25]
  inhibition zone (IZ): 20 mm
[26]
  inhibition zone (IZ): 24 mm
